Assay results published in patent publication EP4737450A1 (Longwood Pharmaceuticals (Hangzhou) Co., Ltd, priority 2023, dated 2025).

These compounds were tested against T1, plasma kallikrein (PKa) (Homo sapiens, UniProt P03952) (assay: Inhibitory activity against plasma kallikrein in vitro (fluorescence intensity enzyme assay, Pro-Phe-Arg-AMC substrate)). Details: plasma kallikrein enzyme assay, Pro-Phe-Arg-AMC substrate; read-out: PKa IC50.
T1 construct: purchased R & D 2497-SE
Assay type: biochemical
Description: Test of the inhibitory activities of the compounds of the present invention against plasma kallikrein (PKa), KLK1 and FXIa in vitro.
The final concentrations of enzyme protein and Pro-Phe-Arg-AMC in the reaction mixture were 10 nM and 60 µM, respectively. The starting concentration of the positive reference substance Avoralstat was 100 nM, 3-fold dilution, 10 + 0 dose. 0.05 µL of compound in 100% DMSO was delivered to a 384-well plate by an acoustic liquid delivery technique (Echo665; nanoliter range). Compound duplex test. […] IC50 values and nonlinear regression curve fitting were obtained using GraphPad Prism software.

T1 sequence (P03952 391-638 limits assumed): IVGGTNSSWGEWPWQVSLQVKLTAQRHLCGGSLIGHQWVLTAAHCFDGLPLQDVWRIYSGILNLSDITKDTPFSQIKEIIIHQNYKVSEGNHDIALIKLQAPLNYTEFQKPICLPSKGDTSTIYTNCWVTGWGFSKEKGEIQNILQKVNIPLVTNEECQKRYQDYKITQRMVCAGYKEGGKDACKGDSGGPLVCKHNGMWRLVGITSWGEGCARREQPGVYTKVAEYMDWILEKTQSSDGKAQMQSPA
T1 sequence (P03952 20-390 partner limits assumed): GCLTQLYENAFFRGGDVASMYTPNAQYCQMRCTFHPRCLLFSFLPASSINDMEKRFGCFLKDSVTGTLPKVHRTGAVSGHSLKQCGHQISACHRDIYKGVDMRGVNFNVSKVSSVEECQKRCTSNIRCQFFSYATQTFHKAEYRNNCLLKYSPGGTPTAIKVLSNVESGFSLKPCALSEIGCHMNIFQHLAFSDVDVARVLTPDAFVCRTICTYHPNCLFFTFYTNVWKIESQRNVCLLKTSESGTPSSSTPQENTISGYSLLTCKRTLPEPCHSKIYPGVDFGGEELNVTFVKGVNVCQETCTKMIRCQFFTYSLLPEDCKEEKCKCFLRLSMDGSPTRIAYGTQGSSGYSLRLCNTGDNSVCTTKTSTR

Question: How did the IC50 turn out when `COc1ccnc(CNC(=O)c2cn(Cc3ccc(Cn4ccccc4=O)cc3)nc2COCC2(F)COC2)c1F` [Compound 235, N-((3-fluoro-4-methoxypyridin-2-yl)methyl)-3-((3-fluorooxetan-3-yl)methoxy)methyl] was run?
Answer: Its IC50 is 3.33 nM.

Question: How did the IC50 turn out when `COc1ccc(F)c(CNC(=O)c2cn(Cc3ccc(Cn4cc(F)ccc4=O)cc3)nc2COC2(C)COC2)c1F` [Compound 236] was run?
Answer: Its IC50 is 16.6 nM.

Question: How did the IC50 turn out when `COc1ccc(F)c(COC(=O)c2cn(Cc3ccc(Cn4cc(F)ccc4=O)cc3)nc2NC2(C)COC2)c1F` [Compound 237] was run?
Answer: Its IC50 is 2.78 nM.

Question: Which IC50 does the source give for `COc1ccnc(CNC(=O)c2cn(Cc3ccc(Cn4ccccc4=O)cc3)nc2CN2CC3(COC3)C2)c1F` [Compound 238] here?
Answer: Its IC50 is 9.15 nM.

Question: With `CCN(CC)CCOCc1nn(Cc2ccc(Cn3ccccc3=O)cc2)cc1C(=O)NCc1nccc(OC)c1F` [Compound 239] as the compound, how does the IC50 read?
Answer: Its IC50 is 6.95 nM.

Question: Which IC50 does the source give for `COc1ccc(F)c(CNC(=O)c2cn(Cc3ccc(Cn4ccccc4=O)cc3)nc2COC2CCC2)c1F` [Compound 240] here?
Answer: Its IC50 is 12.6 nM.

Question: For `N=C(N)c1ccc(CNC(=O)c2cnn(Cc3ccc(CC4CC4)cc3)c2)nc1` [Compound 243], which IC50 is on record?
Answer: The IC50 was 14.3 nM.

Question: How did the IC50 turn out when `COc1ccc(F)c(CNC(=O)c2cn(Cc3ccc(Cn4ccccc4=O)cc3)nc2CN2C(=O)CCC2=O)c1F` [Compound 248] was run?
Answer: The IC50 was 2.85 nM.

Question: Which IC50 does the source give for `COc1ccnc(CNC(=O)c2cn(Cc3ccc(Cn4ccccc4=O)cc3)nc2COC2COC2)c1F` [Compound 249] here?
Answer: Its IC50 is 7.89 nM.

Question: Which IC50 does the source give for `COc1ccc(F)c(CNC(=O)c2cn(Cc3ccc(Cn4ccccc4=O)cc3)nc2C2(OC)CCC2)c1F` [Compound 258] here?
Answer: Its IC50 is 63 nM.

Question: `CNc1ccnc(CNC(=O)c2cn(Cc3ccc(Cn4ccccc4=O)cc3)nc2C2COC2)c1F` [Compound 260, N-((3-fluoro-4-(methylamino)pyridin-2-yl)methyl)-3-(oxetan-3-yl)-1-(4-((2-oxopyridin-1(2H)-yl)methyl)benzyl)-1H-pyrazole-4-carboxamide] was tested. Which IC50 did it give?
Answer: Its IC50 is 7.78 nM.

Question: With `CNc1ccnc(CNC(=O)c2cn(Cc3ccc(Cn4ccccc4=O)cc3)nc2N2CC(F)(F)C2)c1F` [Compound 265] as the compound, how does the IC50 read?
Answer: The IC50 was 6.91 nM.

Question: How did the IC50 turn out when `Nc1ccnc(CNC(=O)c2cn(Cc3ccc(Cn4ccccc4=O)cc3)nc2N2CC(F)(F)C2)c1F` [Compound 268] was run?
Answer: Its IC50 is 68.6 nM.

Question: Which IC50 does the source give for `CC(C)CNc1ccnc(CNC(=O)c2cn(Cc3ccc(Cn4ccccc4=O)cc3)nc2C2COC2)c1F` [Compound 269] here?
Answer: The IC50 was > 1000 nM.

Question: Which IC50 does the source give for `CNC(=N)c1ccc(CNC(=O)c2cnn(Cc3ccc(CC4CC4)cc3)c2)cc1` [Compound 271] here?
Answer: The IC50 was 855 nM.

Question: With `O=C(NCc1nccc(C2CC2)c1F)c1cn(Cc2ccc(Cn3ccccc3=O)cc2)nc1N1CC(F)(F)C1` [Compound 272] as the compound, how does the IC50 read?
Answer: Its IC50 is 42 nM.

Question: How did the IC50 turn out when `O=C(NCc1nccc(NC2CCC2)c1F)c1cn(Cc2ccc(Cn3ccccc3=O)cc2)nc1C1COC1` [Compound 273] was run?
Answer: Its IC50 is > 1000 nM.

Question: `N=C(N)c1ccc(CNC(=O)c2cn(Cc3ccc(CC4CC4)cc3)nc2C(F)(F)F)c(F)c1` [Compound 275] was tested. Which IC50 did it give?
Answer: Its IC50 is 56 nM.

Question: `O=C(NCc1nccc(NCC2CC2)c1F)c1cn(Cc2ccc(Cn3ccccc3=O)cc2)nc1C1COC1` [Compound 276] was tested. Which IC50 did it give?
Answer: The IC50 was > 1000 nM.

Question: For `O=C(NCc1nccc(NCC2CC2)c1F)c1cn(Cc2ccc(Cn3ccccc3=O)cc2)nc1N1CC(F)(F)C1` [Compound 277], which IC50 is on record?
Answer: The IC50 was > 1000 nM.

Question: Which IC50 does the source give for `O=C(NCc1nccc(NC2CCC2)c1F)c1cn(Cc2ccc(Cn3ccccc3=O)cc2)nc1N1CC(F)(F)C1` [Compound 278] here?
Answer: The IC50 was > 1000 nM.

Question: With `CC(C)CNc1ccnc(CNC(=O)c2cn(Cc3ccc(Cn4ccccc4=O)cc3)nc2N2CC(F)(F)C2)c1F` [Compound 279] as the compound, how does the IC50 read?
Answer: The IC50 was > 1000 nM.

Question: Which IC50 does the source give for `Cc1cc(N)nc(C)c1CNC(=O)c1cnn(Cc2ccc(CC3CC3)cc2)c1` [Compound 280] here?
Answer: The IC50 was 2.64 nM.

Question: `COc1ccc(F)c(CNC(=O)c2cn(Cc3ccc(Cn4cc(F)ccc4=O)cc3)nc2N2CC(F)(F)C2)c1F` [Compound 281] was tested. Which IC50 did it give?
Answer: Its IC50 is 24.9 nM.

Question: For `COc1ccnc(COC(=O)c2cn(Cc3ccc(Cn4cc(F)ccc4=O)cc3)nc2NC2(C)COC2)c1F` [Compound 284], which IC50 is on record?
Answer: The IC50 was 3.41 nM.

Question: With `COc1ccc(F)c(CNC(=O)c2cn(Cc3ccc(Cn4cc(F)ccc4=O)cc3)nc2COCC2(C)COC2)c1F` [Compound 285] as the compound, how does the IC50 read?
Answer: Its IC50 is 10.5 nM.

Question: `COc1ccnc(CNC(=O)c2cn(Cc3ccc(Cn4cc(F)ccc4=O)cc3)nc2COCC2(C)COC2)c1F` [Compound 286] was tested. Which IC50 did it give?
Answer: The IC50 was 10.8 nM.

Question: How did the IC50 turn out when `COc1ccnc(CNC(=O)c2cn(Cc3ccc(Cn4ccccc4=O)cc3)nc2N2CC3(COC3)C2)c1F` [Compound 288] was run?
Answer: The IC50 was 11.5 nM.

Question: For `COc1ccc(Cl)c(CNC(=O)c2cn(Cc3ccc(Cn4ccccc4=O)cc3)nc2N2CC(F)(F)C2)c1F` [Compound 290], which IC50 is on record?
Answer: The IC50 was 4.62 nM.

Question: `COc1ccc(F)c(CNC(=O)c2cn(Cc3ccc(Cn4ccccc4=O)cc3)nc2N2CC(C)(OC)C2)c1F` [Compound 291] was tested. Which IC50 did it give?
Answer: Its IC50 is 5.9 nM.

Question: With `COc1ccnc(CNC(=O)c2cn(Cc3ccc(Cn4ccccc4=O)cc3)nc2COC2CCCOC2)c1F` (centres unmarked) [Compound 294] as the compound, how does the IC50 read?
Answer: The IC50 was 10.6 nM.

Question: With `COc1ccnc(CNC(=O)c2cn(Cc3ccc(Cn4ccccc4=O)cc3)nc2COC2CCOCC2)c1F` [Compound 295] as the compound, how does the IC50 read?
Answer: Its IC50 is 16.3 nM.

Question: `COc1ccnc(CNC(=O)c2cn(Cc3ccc(Cn4ccccc4=O)cc3)nc2NC2(C)COC2)c1F` [Compound 297] was tested. Which IC50 did it give?
Answer: Its IC50 is 2.83 nM.

Question: `COc1ccc(F)c(CNC(=O)c2cn(Cc3ccc(Cn4cc(F)ccc4=O)cc3)nc2N[C@H]2CCOC2)c1F` [Compound 298] was tested. Which IC50 did it give?
Answer: The IC50 was 2.79 nM.

Question: Which IC50 does the source give for `COc1ccnc(CNC(=O)c2cn(Cc3ccc(Cn4ccccc4=O)cc3)nc2COCC(C)(C)OC)c1F` [Compound 299] here?
Answer: The IC50 was 11.2 nM.

Question: Which IC50 does the source give for `COc1ccc(F)c(CNC(=O)c2cn(Cc3ccc(Cn4ccccc4=O)cc3)nc2NC2(C)COC2)c1F` [Compound 300] here?
Answer: Its IC50 is 1.94 nM.

Question: `COc1ccnc(CNC(=O)c2cn(Cc3ccc(Cn4ccccc4=O)cc3)nc2-c2cnccn2)c1F` [Compound 301] was tested. Which IC50 did it give?
Answer: The IC50 was 24.9 nM.

Question: `COc1ccnc(CNC(=O)c2cn(Cc3ccc(Cn4ccccc4=O)cc3)nc2-c2cncnc2)c1F` [Compound 304] was tested. Which IC50 did it give?
Answer: Its IC50 is 7.24 nM.

Question: How did the IC50 turn out when `COc1ccnc(CNC(=O)c2cn(Cc3ccc(Cn4ccccc4=O)cc3)nc2CN2C(=O)CC(C)(C)CC2=O)c1F` [Compound 305] was run?
Answer: The IC50 was 12.4 nM.

Question: How did the IC50 turn out when `COCC1CN(c2nn(Cc3ccc(Cn4ccccc4=O)cc3)cc2C(=O)NCc2nccc(OC)c2F)C1` [Compound 306] was run?
Answer: The IC50 was 12.8 nM.

Question: Which IC50 does the source give for `COc1ccnc(CNC(=O)c2cn(Cc3ccc(Cn4ccccc4=O)cc3)nc2N2CC(OC(C)C)C2)c1F` [Compound 307] here?
Answer: The IC50 was 4.57 nM.

Question: For `COc1ccnc(CNC(=O)c2cn(Cc3ccc(Cn4ccccc4=O)cc3)nc2CN2C(=O)CCCC2=O)c1F` [Compound 308], which IC50 is on record?
Answer: Its IC50 is 3.49 nM.

Question: With `COc1ccnc(CNC(=O)c2cn(Cc3ccc(Cn4ccccc4=O)cc3)nc2CN2C[C@H](C)O[C@@H](C)C2)c1F` [Compound 309] as the compound, how does the IC50 read?
Answer: Its IC50 is 273 nM.

Question: For `CC(C)Cc1ccc(Cn2cc(C(=O)NCc3ccc(C(=N)N)cc3)cn2)cc1` [Compound 312], which IC50 is on record?
Answer: The IC50 was 2 nM.

Question: With `CN(C)c1ccnc(CNC(=O)c2cn(Cc3ccc(Cn4ccccc4=O)cc3)nc2N2CC3(C2)OCC3(C)C)c1F` [Compound 313] as the compound, how does the IC50 read?
Answer: Its IC50 is 3.24 nM.

Question: With `Cc1cc(C(=N)N)nc(C)c1CNC(=O)c1cnn(Cc2ccc(CC3CC3)cc2)c1` [Compound 323] as the compound, how does the IC50 read?
Answer: Its IC50 is 65.6 nM.

Question: Which IC50 does the source give for `O=C(NCc1nccc2[nH]ccc12)c1cn(Cc2ccc(Cn3ccccc3=O)cc2)nc1C1COC1` [Compound 325] here?
Answer: The IC50 was 38.6 nM.

Question: Which IC50 does the source give for `N=C(N)c1cnc(CNC(=O)c2cnn(Cc3ccc(CC4CC4)cc3)c2)nc1` [Compound 329] here?
Answer: Its IC50 is 42.4 nM.

Question: `N=C(N)c1cnc(CNC(=O)c2cnn(Cc3ccc(CC4CC4)cc3)c2)cn1` [Compound 330] was tested. Which IC50 did it give?
Answer: Its IC50 is 855 nM.

Question: For `O=C(NCc1nccc(NC2COC2)c1F)c1cn(Cc2ccc(Cn3ccccc3=O)cc2)nc1C1COC1` [Compound 331], which IC50 is on record?
Answer: The IC50 was > 1000 nM.
